# Data taken from patent US10301272B2, “Carboxamide or sulfonamide substituted thiazoles and related derivatives as modulators for the orphan nuclear receptor ROR[γ]” (Phenex Pharmaceuticals AG, priority 2012, dated 2019).
# Target: RORγ (Homo sapiens, UniProt P51449)
# Test: RORγ Gal4 Reporter Gene Assay
# Assay type: cell-based
# Conditions: not given
# Description: Determination of a ligand mediated Gal4 promoter driven transactivation to quantify ligand binding to RORγ was performed as follows: DNA encoding three different RORγ protein fragments was cloned into vector pCMV-BD (Stratagene). Expression was under control of a CMV promoter and as fusion to the DNA-binding domain of the yeast protein GAL4. Other vectors used were pFR-Luc (Stratagene) as regulated reporter plasmid. pFR-Luc contains a synthetic promoter with five tandem repeats of the yeast GAL4 binding sites that control expression of the Photinus pyralis (American firefly) luciferase gene. In order to improve experimental accuracy the plasmid pRL-CMV was cotransfected. pRL-CMV contains the constitutive CMV promoter, controlling the expression of the Renilla reniformis luciferase.
# The medium is supplemented with 10% fetal bovine serum, 0.1 mM nonessential amino acids, 1 mM sodium pyruvate, 1% Glutamax and 100 units Penicilin/[…] per mL at 37° C. in 5% CO2.
# For the assay, […] were plated per well in 96 well plates in 100 μL per well, incubated over night at 37° C. in 5% CO2. […] About 4 h after addition of the transfection solution, fresh Minimal Essential Medium (MEM, same composition as used for plating cells, but without serum) was added. Then compound stocks, prediluted in MEM (same composition as used for plating cells) were added (final vehicle concentration not exceeding 0.1%).
# All experiments were done at least in triplicates.
# RORγ, sequence (P51449 whole entry, looked up, the tested form may be a part): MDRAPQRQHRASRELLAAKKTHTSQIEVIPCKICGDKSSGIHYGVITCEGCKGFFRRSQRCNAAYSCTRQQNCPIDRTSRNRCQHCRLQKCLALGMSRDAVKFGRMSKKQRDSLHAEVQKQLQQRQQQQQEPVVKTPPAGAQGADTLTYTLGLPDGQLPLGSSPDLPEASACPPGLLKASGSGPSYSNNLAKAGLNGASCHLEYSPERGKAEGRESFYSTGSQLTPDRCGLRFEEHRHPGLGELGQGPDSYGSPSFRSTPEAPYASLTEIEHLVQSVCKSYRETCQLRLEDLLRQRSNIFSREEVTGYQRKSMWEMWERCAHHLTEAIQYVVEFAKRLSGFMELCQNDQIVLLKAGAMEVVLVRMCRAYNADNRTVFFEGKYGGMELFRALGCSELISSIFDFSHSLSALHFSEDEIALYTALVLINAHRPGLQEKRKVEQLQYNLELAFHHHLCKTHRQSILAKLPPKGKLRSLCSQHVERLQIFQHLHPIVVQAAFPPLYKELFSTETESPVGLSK
Compound,pIC50 (FF),pIC50 (REN)
CC(C)(C)NS(=O)(=O)c1ccc(-c2sc(C(=O)NC3CCS(=O)(=O)CC3)nc2C2CCC2)c2ccccc12 [300/10],nt/7.2/7.3,nt/7.2/7.3
CC(C)(C)NS(=O)(=O)c1ccc(-c2sc(C(=O)NC3CCS(=O)(=O)CC3)nc2-c2cccnc2)c2ccccc12 [300/12],nt/6.1/6.2,nt/6.1/6.2
CC(C)(C)NS(=O)(=O)c1ccc(-c2sc(C(=O)NC3CCS(=O)(=O)CC3)nc2Cc2cccnc2)c2ccccc12 [300/13],nt/6.4/6.6,nt/6.4/6.6
CC(C)(C)NS(=O)(=O)c1ccc(-c2sc(C(=O)NC3CCS(=O)(=O)CC3)nc2-c2cccc(Cl)c2)c2ccccc12 [300/14],nt/8.2/8.2,nt/8.2/8.2
CC(C)(C)NS(=O)(=O)c1ccc(-c2sc(C(=O)NC3CCS(=O)(=O)CC3)nc2-c2cccc(C#N)c2)c2ccccc12 [300/15],nt/7.3/7.4,nt/7.3/7.4
CC(C)(C)NS(=O)(=O)c1ccc(-c2sc(C(=O)NC3CCS(=O)(=O)CC3)nc2-c2cccc(C(N)=O)c2)c2ccccc12 [300/16],nt/6.0/6.1,nt/6.0/6.1
CC(C)(C)NS(=O)(=O)c1ccc(-c2sc(C(=O)N[C@H]3C[C@H](C(=O)O)C3)nc2C2CCCCC2)c2ccccc12 [300/17],nt/8.0/8.0,nt/8.0/8.0
CCC(C)(C)NS(=O)(=O)c1ccc(-c2sc(C(=O)N3CC4(C3)CS(=O)(=O)C4)nc2C(=O)N2CCC(C)CC2)c(Cl)c1C [301/2],nt/7.7/7.8,nt/7.7/7.8
CC(C)(O)CNC(=O)c1nc(C(=O)N2CCCCC2(C)C)c(-c2ccc(S(=O)(=O)NC(C)(C)C)c3ccccc23)s1 [304/6],nt/6.6/6.8,nt/6.6/6.8
CC1CCCN(C(=O)c2nc(C(=O)NCC(C)(C)O)sc2-c2ccc(S(=O)(=O)NC(C)(C)C)c3ccccc23)C1C (stereo not shown) [304/9],nt/7.3/7.4,nt/7.3/7.4
CCC1CCN(C(=O)c2nc(C(=O)NCC(C)(C)O)sc2-c2ccc(S(=O)(=O)NC(C)(C)C)c3ccccc23)CC1 [304/10],nt/7.5/7.5,nt/7.5/7.5
CC1CCN(C(=O)c2nc(C(=O)NCC(C)(C)O)sc2-c2ccc(S(=O)(=O)N[C@@H](C)C(F)(F)F)c3ccccc23)CC1 [304/12],nt/7.7/7.7,nt/7.7/7.7
CCC(C)(C)NS(=O)(=O)c1ccc(-c2sc(C(=O)NCC(C)(C)O)nc2C(=O)N2CCC(C)CC2)c2ccccc12 [304/13],nt/7.6/7.7,nt/7.6/7.7
CCC(C)(C)NS(=O)(=O)c1ccc(-c2sc(C(=O)NC3CCS(=O)(=O)CC3)nc2C(=O)N2CCC(C)CC2)c2ccccc12 [304/14],nt/7.5/7.6,nt/7.5/7.6
CCC(C)(C)NS(=O)(=O)c1ccc(-c2sc(C(=O)NC3CCOCC3)nc2C(=O)N2CCC(C)CC2)c2ccccc12 [304/15],nt/7.6/7.7,nt/7.6/7.7
CC1CCN(C(=O)c2nc(C(=O)N3CC4(CCS(=O)(=O)CC4)C3)sc2-c2ccc(S(=O)(=O)NC(C)(C)C)c3ccccc23)CC1 [304/16],nt/6.6/6.6,nt/6.6/6.6
CC1CCN(C(=O)c2nc(C(=O)N3CC4(CCOCC4)C3)sc2-c2ccc(S(=O)(=O)NC(C)(C)C)c3ccccc23)CC1 [304/17],nt/7.2/7.2,nt/7.2/7.2

Compound,pIC50 (FF),pIC50 (REN)
CC1CCN(C(=O)c2nc(C(=O)NC3CC34CCOCC4)sc2-c2ccc(S(=O)(=O)NC(C)(C)C)c3ccccc23)CC1 (stereo not shown) [304/18],nt/7.5/7.7,nt/7.5/7.7
CC1CCN(C(=O)c2nc(C(=O)NCC(C)(C)O)sc2-c2ccc(S(=O)(=O)NCC(C)(C)C)c3ccccc23)CC1 [304/19],nt/7.4/7.5,nt/7.4/7.5
CCN(C(C)(C)C)S(=O)(=O)c1ccc(-c2sc(C(=O)NCC(C)(C)O)nc2C(=O)N2CCC(C)CC2)c2ccccc12 [304/20],nt/7.4/7.7,nt/7.4/7.7
CC1CCN(C(=O)c2nc(C(=O)NCC(C)(C)O)sc2-c2ccc(S(=O)(=O)NCC(F)(F)F)c3ccccc23)CC1 [304/21],nt/7.4/7.4,nt/7.4/7.4
CC1CCN(C(=O)c2nc(C(=O)NCC(C)(C)O)sc2-c2ccc(S(=O)(=O)NCC(C)(C)O)c3ccccc23)CC1 [304/22],nt/5.8/5.8,nt/5.8/5.8
CC1CCN(C(=O)c2nc(C(=O)NCC(C)(C)O)sc2-c2ccc(S(=O)(=O)N(CC(F)(F)F)C(C)(C)C)c3ccccc23)CC1 [304/23],nt/7.5/7.7,nt/7.5/7.7
CC1CCN(C(=O)c2nc(C(=O)NCC(C)(C)O)sc2-c2ccc(S(=O)(=O)NC3CCOC3)c3ccccc23)CC1 (stereo not shown) [304/24],nt/6.6/6.7,nt/6.6/6.7
CC1CCN(C(=O)c2nc(C(=O)NCC(C)(C)O)sc2-c2ccc(S(=O)(=O)N3CCCCC3(C)C)c3ccccc23)CC1 [304/25],nt/8.0/7.6,nt/8.0/7.6
CC1CCN(C(=O)c2nc(C(=O)NCC(C)(C)O)sc2-c2ccc(S(=O)(=O)NC3(C)CCC3)c3ccccc23)CC1 [304/26],nt/8.0/7.9,nt/8.0/7.9
CC1CCN(C(=O)c2nc(C(=O)NCC(C)(C)O)sc2-c2ccc(S(=O)(=O)NC3(C)CC3)c3ccccc23)CC1 [304/27],nt/7.6/7.5,nt/7.6/7.5
CC(C)(C)NS(=O)(=O)c1ccc(-c2nc(C(=O)N[C@H]3C[C@H](C(=O)O)C3)sc2CC2CCCCC2)c2ccccc12 [Example 25/1],nt/8.9/8.8,nt/8.9/8.8
"CCC(C)(C)NS(=O)(=O)c1ccc(-c2sc(C(=O)NC3CCS(=O)(=O)CC3)nc2C(=O)N2CCC(C)CC2)c(Cl)c1C [Example 301, 5-(2-Chloro-3-methyl-4-(N-(tert-pentyl)sulfamoyl)phenyl)-N-(1,1-dioxidotetrahydro-2H-thiopyran-4-yl)-4-(4-methylpiperidine-1-carbonyl)thiazole-2-carboxamide]",nt/7.8/7.9,nt/7.8/7.9
CCC(C)(C)NS(=O)(=O)c1ccc(-c2sc(C(=O)NCC(C)(C)O)nc2C(=O)N2CCC(C)CC2)c(Cl)c1C [Example 301/1],nt/8.5/8.5,nt/8.5/8.5
"CCC(C)(C)NS(=O)(=O)c1ccc(-c2sc(C(=O)N[C@H]3C[C@H](C(=O)O)C3)nc2C(=O)N2CCC(C)CC2)c(Cl)c1C [Example 302, trans-3-(5-(2-Chloro-3-methyl-4-(N-(tert-pentyl)sulfamoyl)phenyl)-4-(4-methylpiperidine-1-carbonyl)thiazole-2-carboxamido)cyclobutanecarboxylic acid]",nt/7.3/7.5,nt/7.3/7.5
"CCC(C)(C)NS(=O)(=O)c1ccc(-c2sc(C(=O)NCc3ncc(S(C)(=O)=O)s3)nc2C(=O)N2CCC(C)CC2)c(Cl)c1C [Example 303, 5-(2-Chloro-3-methyl-4-(N-(tert-pentyl)sulfamoyl)phenyl)-4-(4-methylpiperidine-1-carbonyl)-N-((5-(methylsulfonyl)thiazol-2-yl)methyl)thiazole-2-carboxamide]",nt/7.7/7.7,nt/7.7/7.7
"CC(C)(O)CNC(=O)c1nc(C(F)F)c(-c2ccc(S(=O)(=O)NC(C)(C)C)c3ccccc23)s1 [Example 305, 5-(4-(N-(tert-butyl)sulfamoyl)naphthalen-1-yl)-4-(difluoromethyl)-N-(2-hydroxy-2-methylpropyl)thiazole-2-carboxamide]",nt/6.6/7.2,nt/6.6/7.2

# Same assay, conditions: firefly (FF) luciferase, 293T cells
row,Compound,pIC50 (FF)
1,"CC(C)(C)c1cc(-c2nc(C(=O)N[C@H]3C[C@H](C(=O)O)C3)sc2CC2CCCCC2)cc(C2(C)CC2)c1 [Example 25, trans-3-(4-(3-(tert-Butyl)-5-(1-methylcyclopropyl)phenyl)-5-(cyclohexylmethyl)thiazole-2-carboxamido)cyclobutanecarboxylic acid]",nt/6.1/6.1

# Same assay, conditions: firefly (FF) luciferase, 293T cells; read-out: pIC50 (FF) (converted)
row,Compound,IC50 [µM]
1,CC(C)(C)NS(=O)(=O)c1ccc(-c2sc(C(=O)N[C@H]3C[C@H](C(=O)O)C3)nc2Cc2ccccc2)c2ccccc12 [300/18],0.0316

# Same assay, conditions: renilla normalised (RENnorm) luciferase, 293T cells
row,Compound,pIC50 (REN)
1,"CC(C)(C)c1cc(-c2nc(C(=O)N[C@H]3C[C@H](C(=O)O)C3)sc2CC2CCCCC2)cc(C2(C)CC2)c1 [Example 25, trans-3-(4-(3-(tert-Butyl)-5-(1-methylcyclopropyl)phenyl)-5-(cyclohexylmethyl)thiazole-2-carboxamido)cyclobutanecarboxylic acid]",nt/6.1/6.1

# Same assay, conditions: renilla normalised (RENnorm) luciferase, 293T cells; read-out: pIC50 (REN) (converted)
row,Compound,IC50 [µM]
1,CC(C)(C)NS(=O)(=O)c1ccc(-c2sc(C(=O)N[C@H]3C[C@H](C(=O)O)C3)nc2Cc2ccccc2)c2ccccc12 [300/18],0.0251
